Results as given in PubChem BioAssay (NCI).
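All cell lines were grown in 96-well plates and treated with compound for 48 hours. Abbreviation: GI50, concentration required for 50% inhibition of growth. TGI is the concentration that stops growth completely.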

Columns and labels:
Assay in all cases: DTP human tumour cell line panel, 48 h
SNB-19 CNS = system: SNB-19 CNS
BT-549 breast = system: BT-549 breast
UACC-257 melanoma = system: UACC-257 melanoma
IGROV1 ovarian = system: IGROV1 ovarian
SR leukemia = system: SR leukemia
MALME-3M melanoma = system: MALME-3M melanoma
EKVX NSCLC = system: EKVX NSCLC
CAKI-1 renal = system: CAKI-1 renal
DU-145 prostate = system: DU-145 prostate
HCC-2998 colon = system: HCC-2998 colon
SF-539 CNS = system: SF-539 CNS
MOLT-4 leukemia = system: MOLT-4 leukemia
OVCAR-5 ovarian = system: OVCAR-5 ovarian
786-0 renal = system: 786-0 renal
U251 CNS = system: U251 CNS
NCI-H522 lung = system: NCI-H522 lung
A498 renal = system: A498 renal
RPMI-8226 leukemia = system: RPMI-8226 leukemia
K-562 leukemia = system: K-562 leukemia
HCT-15 colon = system: HCT-15 colon
MCF7 breast = system: MCF7 breast
NCI/ADR-RES ovarian = system: NCI/ADR-RES ovarian
HS 578T breast = system: HS 578T breast
MDA-MB-435 = system: MDA-MB-435
ACHN renal = system: ACHN renal
CCRF-CEM leukemia = system: CCRF-CEM leukemia
SK-OV-3 ovarian = system: SK-OV-3 ovarian
NCI-H226 lung = system: NCI-H226 lung
NCI-H460 lung = system: NCI-H460 lung

COc1cc(N2CCN(C(C)C)CC2)ccc1Nc1nc(Nc2cccc(F)c2C(=O)O)c2cc[nH]c2n1
GI50 (SNB-19 CNS): > 25 µM
TGI (SNB-19 CNS): > 25 µM
GI50 (BT-549 breast): > 25 µM
TGI (BT-549 breast): > 25 µM
GI50 (UACC-257 melanoma): > 25 µM
TGI (UACC-257 melanoma): > 25 µM
GI50 (IGROV1 ovarian): > 25 µM
TGI (IGROV1 ovarian): > 25 µM
GI50 (SR leukemia): > 25 µM
TGI (SR leukemia): > 25 µM
GI50 (MALME-3M melanoma): > 25 µM
TGI (MALME-3M melanoma): > 25 µM
GI50 (EKVX NSCLC): > 25 µM
TGI (EKVX NSCLC): > 25 µM
GI50 (CAKI-1 renal): > 25 µM
TGI (CAKI-1 renal): > 25 µM
GI50 (DU-145 prostate): > 25 µM
TGI (DU-145 prostate): > 25 µM
GI50 (HCC-2998 colon): > 25 µM
TGI (HCC-2998 colon): > 25 µM
GI50 (SF-539 CNS): > 25 µM
TGI (SF-539 CNS): > 25 µM
GI50 (MOLT-4 leukemia): > 25 µM
TGI (MOLT-4 leukemia): > 25 µM
GI50 (OVCAR-5 ovarian): > 25 µM
TGI (OVCAR-5 ovarian): > 25 µM
GI50 (786-0 renal): > 25 µM
TGI (786-0 renal): > 25 µM
GI50 (U251 CNS): > 25 µM
TGI (U251 CNS): > 25 µM
GI50 (NCI-H522 lung): > 25 µM
TGI (NCI-H522 lung): > 25 µM
GI50 (A498 renal): > 25 µM
TGI (A498 renal): > 25 µM
GI50 (RPMI-8226 leukemia): > 25 µM
TGI (RPMI-8226 leukemia): > 25 µM
GI50 (K-562 leukemia): > 25 µM
TGI (K-562 leukemia): > 25 µM
GI50 (HCT-15 colon): > 25 µM
TGI (HCT-15 colon): > 25 µM
GI50 (MCF7 breast): > 25 µM
TGI (MCF7 breast): > 25 µM
GI50 (NCI/ADR-RES ovarian): > 25 µM
TGI (NCI/ADR-RES ovarian): > 25 µM
GI50 (HS 578T breast): > 25 µM
TGI (HS 578T breast): > 25 µM
GI50 (MDA-MB-435): > 25 µM
TGI (MDA-MB-435): > 25 µM
GI50 (ACHN renal): > 25 µM
TGI (ACHN renal): > 25 µM
GI50 (CCRF-CEM leukemia): > 25 µM
TGI (CCRF-CEM leukemia): > 25 µM
GI50 (SK-OV-3 ovarian): > 25 µM
TGI (SK-OV-3 ovarian): > 25 µM
GI50 (NCI-H226 lung): > 25 µM
TGI (NCI-H226 lung): > 25 µM
GI50 (NCI-H460 lung): > 25 µM
TGI (NCI-H460 lung): > 25 µM
